What all share (type): cell-based
Test [1] deals with PBMCs. The test is described as follows: LPS-induced TNFα/IL-8 release in PBMC cells. The conditions noted are these: Homo sapiens, assay (b), read-out: IC50 Values for Inhibition of Cytokine Release PBMCs IL-8. In outline: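 Healthy-donor PBMCs isolated by density gradient were pretreated with compound for 2 h, then stimulated with 1 ng/mL LPS (E. coli 0111:B4) for 24 h at 37° C., 5% CO2. IL-8 and TNFα in supernatants measured by sandwich ELISA.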

Test [2] concerns PBMCs. Description: Cell mitosis assay in PBMCs. The conditions noted are these: Homo sapiens, PBMC, 5 μg/mL. As to the method: Peripheral blood mononucleocytes (PBMCs) from healthy subjects are separated from whole blood (Quintiles, London, UK) using a density gradient (Histopaque®-1077, Sigma-Aldrich, Poole, UK). The PBMCs (3 million cells per sample) are subsequently treated with 2% PHA (phytohaemagglutinin, Sigma-Aldrich, Poole, UK) for 48 hr, followed by a 20 hr exposure to varying concentrations of test compounds. At 2 hr before collection, PBMCs are treated with demecolcine (0.1 μg/mL; Invitrogen, Paisley, UK) to arrest cells in metaphase. To observe mitotic cells, PBMCs are permeabilised and fixed by adding Intraprep (50 μL; Beckman Coulter, France), and stained with anti-phospho-histone 3 (0.26 ng/L; #9701; Cell Signalling, Danvers, Mass.) and propidium iodide (1 mg/mL; Sigma-Aldrich, Poole, UK) as previously described (Muehlbauer P. A. and Schuler M. J., Mutation Research, 2003, 537:117-130). Fluorescence is observed using an ATTUNE flow cytometer (Invitrogen, Paisley, UK), gating for lymphocytes.

The test system of test [3] is PBMCs. Description: IL-2 and IFN gamma release in CD3/CD28 stimulated PBMC cells. Conditions: Homo sapiens, assay (c). As to the method: PBMCs from healthy subjects are separated from whole blood using a density gradient (Lymphoprep, Axis-Shield Healthcare). Cells are added to a 96 well plate pre-coated with a mixture of CD3/CD28 monoclonal antibodies (0.3 μg/mL eBioscience and 3 μg/mL BD Pharmingen respectively). Compound at the desired concentration is then added to the wells and the plate left for 3 days under normal tissue culture conditions. […] The IC50 is determined from the dose response curve.

Setting [4] is: read-out: IC50 Values for Inhibition of Cytokine Release PBMCs IFNγ.
Where [5] appears, read: read-out: IC50 Values for Inhibition of Cytokine Release PBMCs IL-2.

Each structure is given as a SMILES string.

As a reminder, the IC50 is the concentration that inhibits the measured activity by half. The term inhibition denotes the percentage by which the read-out fell short of the control. Read a low inhibition as a response near the control. As for `COc1cc(Nc2nccc(Oc3ccc(NC(=O)Nc4cc(C(C)(C)C)cc(NS(C)(=O)=O)c4OC)c4ccccc34)n2)cc(OCCOCCOCCO)c1` [83(c), N-(5-(tert-butyl)-3-(3-(4-((2-((3-(2-(2-(2-hydroxyethoxy)ethoxy)ethoxy)-5-methoxyphenyl)-amino)pyrimidin-4-yl)oxy)naphthalen-1-yl)ureido)-2-methoxyphenyl)methanesulfonamide], the IC50 in test [1] was determined as 1.8 nM. In test [2], this molecule yielded an inhibition at 5 µg/mL of 57.1%.

For the molecule `COc1cc(CO)cc(Nc2cc(Oc3ccc(NC(=O)Nc4cc(C(C)(C)C)cc(C(N)=O)c4OC)c4ccccc34)ccn2)c1` [84(g), 5-tert-Butyl-3-[[4-[[2-[3-(hydroxymethyl)-5-methoxyanilino]-4-pyridyl]oxy]-1-naphthyl]carbamoylamino]-2-methoxybenzamide], the IC50 in test [3] (setting [4]) came out at 1.3 nM; in test [3] (setting [5]), 43.5 nM; in test [1], 0.7 nM. In test [2], the inhibition at 5 µg/mL worked out at 84.6%.

Regarding `CNC(=O)c1cc(C(C)(C)C)cc(NC(=O)Nc2ccc(Oc3ccnc(Nc4cc(CO)cc(OC)c4)c3)c3ccccc23)c1OC` [84(h), 5-tert-Butyl-3-[[4-[[2-[3-(hydroxymethyl)-5-methoxyanilino]-4-pyridyl]oxy]-1-naphthyl]carbamoylamino]-2-methoxy-N-methyl-benzamide], the IC50 in test [3] (setting [4]) was 1.7 nM; in test [3] (setting [5]) it was 51.3 nM; in test [1] it was 0.7 nM. Further, 5 µg/mL produced 87% inhibition in test [2].

In the case of `COc1cc(Nc2cc(Oc3ccc(NC(=O)Nc4cc(C(C)(C)C)cc(NS(C)(=O)=O)c4OC)c4ccccc34)ccn2)cc(C(=O)NCC(=O)N2CCOCC2)c1` [85(a), 3-[[4-[[4-[[5-tert-Butyl-3-(methanesulfonamido)-2-methoxyphenyl]-carbamoylamino]-1-naphthyl]oxy]-2-pyridyl]amino]-5-methoxy-N-(2-morpholino-2-oxo-ethyl)benzamide], the figures for the IC50 in test [3] (setting [4]), in test [3] (setting [5]) and in test [1] were 11.8 nM, 53.8 nM and 0.8 nM, respectively. In addition, the inhibition at 5 µg/mL in test [2] amounted to 46.3%.

For `C#Cc1cc(Nc2cc(Oc3ccc(NC(=O)Nc4cc(C(C)(C)C)cc(CO)c4OC)c4ccccc34)ccn2)cc(C(=O)NCCOCCOCCOC)c1` [85(b), 3-[[4-[[4-[[5-tert-Butyl-3-(hydroxymethyl)-2-methoxyphenyl]-carbamoylamino]-1-naphthyl]oxy]-2-pyridyl]amino]-5-ethynyl-N-[2-[2-(2-methoxyethoxy)ethoxy]ethyl]benzamide], the results for the IC50 in test [3] (setting [4]), in test [3] (setting [5]) and in test [1] were 16.2 nM, 123 nM and 1.5 nM, respectively. Besides, testing at 5 µg/mL in test [2] gave an inhibition of 25.3%.

As to `C#Cc1cc(Nc2cc(Oc3ccc(NC(=O)Nc4cc(C(C)(C)C)cc(NS(C)(=O)=O)c4OC)c4ccccc34)ccn2)cc(C(=O)NCCCN2CCOCC2)c1` [85(d), 3-[[4-[[4-[[5-tert-Butyl-3-(methanesulfonamido)-2-methoxyphenyl]-carbamoylamino]-1-naphthyl]oxy]-2-pyridyl]amino]-5-ethynyl-N-(3-morpholinopropyl)-benzamide], the IC50 in test [3] (setting [4]) was 15.4 nM; in test [3] (setting [5]), 94.3 nM; in test [1] it was 2.1 nM. This molecule also had an inhibition at 5 µg/mL in test [2] of 33.2%.

`COc1cc(Nc2cc(Oc3ccc(NC(=O)Nc4cc(C(C)(C)C)cc(NS(C)(=O)=O)c4OC)c4ccccc34)ccn2)cc(C(=O)NCC(C)(C)N2CCOCC2)c1` [85(h), 3-[[4-[[4-[[5-tert-Butyl-3-(methanesulfonamido)-2-methoxyphenyl]-carbamoylamino]-1-naphthyl]oxy]-2-pyridyl]amino]-5-methoxy-N-(2-methyl-2-morpholinopropyl)benzamide]: the IC50 in test [3] (setting [4]) worked out at 23 nM; in test [3] (setting [5]), 150 nM; in test [1], 2.2 nM. The molecule further displayed an inhibition at 5 µg/mL in test [2] of 27.5%.

With `COc1cc(Nc2cc(Oc3ccc(NC(=O)Nc4cc(C(C)(C)C)cc(NS(C)(=O)=O)c4OC)c4ccccc34)ccn2)cc(C(=O)NCCN2CCS(=O)(=O)CC2)c1` [85(k), 3-[[4-[[4-[[5-tert-Butyl-3-(methanesulfonamido)-2-methoxyphenyl]-carbamoylamino]-1-naphthyl]oxy]-2-pyridyl]amino]-N-[2-(1,1-dioxo-1,4-thiazinan-4-yl)ethyl]-5-methoxybenzamide], the IC50 stood at 9.3 nM in test [3] (setting [4]), 57.1 nM in test [3] (setting [5]) and 1.7 nM in test [1]. In test [2], 5 µg/mL produced 41% inhibition.

As to `COc1cc(Nc2cc(Oc3ccc(NC(=O)Nc4cc(C(C)(C)C)cc(NS(C)(=O)=O)c4OC)c4ccccc34)ccn2)cc(C(=O)NCCN2CCOC(C)(C)C2)c1` [85(m), 3-[[4-[[4-[[5-tert-Butyl-3-(methanesulfonamido)-2-methoxyphenyl]-carbamoylamino]-1-naphthyl]oxy]-2-pyridyl]amino]-N-[2-(2,2-dimethylmorpholin-4-yl)ethyl]-5-methoxybenzamide], the IC50 in test [1] is 1.8 nM. This molecule also came in with an inhibition at 5 µg/mL in test [2] of 26.4%.

Turning to `COc1cc(Nc2cc(Oc3ccc(NC(=O)Nc4cc(C(C)(C)C)cc(NS(C)(=O)=O)c4OC)c4ccccc34)ccn2)cc(C(=O)NCCN2C[C@@H](C)O[C@@H](C)C2)c1` [85(n), 3-[[4-[[4-[[5-tert-Butyl-3-(methanesulfonamido)-2-methoxyphenyl]-carbamoylamino]-1-naphthyl]oxy]-2-pyridyl]amino]-N-[2-[(2R,6S)-2,6-dimethylmorpholin-4-yl]ethyl]-5-methoxybenzamide], the IC50 in test [1] worked out at 1.9 nM. Besides, in test [2], the inhibition at 5 µg/mL came to 26.6%.

For the molecule `COCCOCCNC(=O)c1cc(Nc2cc(Oc3ccc(NC(=O)Nc4cc(C(C)(C)C)cc(NS(C)(=O)=O)c4OC)c4ccccc34)ccn2)cc(OC)c1` [85(u), 3-[[4-[[4-[[5-tert-Butyl-3-(methanesulfonamido)-2-methoxyphenyl]-carbamoylamino]-1-naphthyl]oxy]-2-pyridyl]amino]-5-methoxy-N-[2-(2-methoxyethoxy)-ethyl]benzamide], in test [1], the half-inhibitory concentration (IC50) amounted to 1.4 nM. For the same molecule, the inhibition at 5 µg/mL in test [2] was found to be 38.4%.

With `COc1cc(Nc2nccc(Oc3ccc(NC(=O)Nc4cc(C(C)(C)C)cc(NS(C)(=O)=O)c4OC)c4ccccc34)n2)cc(OCCOCCOCCN(C)C)c1` [Example 15, N-(5-(tert-Butyl)-3-(3-(4-((2-((3-(2-(2-(2-(dimethylamino)ethoxy)ethoxy)ethoxy)-5-methoxyphenyl)amino)pyrimidin-4-yl)oxy)naphthalen-1-yl)ureido)-2-methoxyphenyl)-methanesulfonamide], the IC50 in test [1] is 0.9 nM. The inhibition at 5 µg/mL in test [2] turned out to be 97.5%.

With `COc1cc(Nc2nccc(Oc3ccc(NC(=O)Nc4cc(C(C)(C)C)cc(NS(C)(=O)=O)c4OC)c4ccccc34)n2)cc(OCCOCCOCCN2CCOCC2)c1` [Example 18, N-(5-(tert-Butyl)-2-methoxy-3-(3-(4-((2-((3-methoxy-5-(2-(2-(2-morpholinoethoxy)ethoxy)-ethoxy)phenyl)amino)pyrimidin-4-yl)oxy)naphthalen-1-yl)ureido)phenyl)methanesulfonamide], in test [1], the IC50 stood at 1 nM. Further, 5 µg/mL produced 92.7% inhibition in test [2].

On to `COCCOCCOCCOc1cc(Nc2nccc(Oc3ccc(NC(=O)Nc4cc(C(C)(C)C)cc(C(=O)NCC(=O)OC)c4OC)c4ccccc34)n2)cc(OC)c1` [Example 37, Methyl 2-(5-(tert-butyl)-2-methoxy-3-(3-(4-((2-((3-methoxy-5-(2-(2-(2-methoxyethoxy)-ethoxy)ethoxy)phenyl)amino)pyrimidin-4-yl)oxy)naphthalen-1-yl)ureido)benzamido)-acetate], for which the IC50 in test [1] was 2.2 nM. Also, the inhibition at 5 µg/mL in test [2] amounted to 45.9%.

Regarding `COCCOCCOCCOc1cc(Nc2cc(Oc3ccc(NC(=O)Nc4cc(C(C)(C)C)cc(C(=O)NCCN(C)C)c4OC)c4ccccc34)ccn2)cc(OC)c1` [Example 76, 5-(tert-Butyl)-N-(2-(dimethylamino)ethyl)-2-methoxy-3-(3-(4-((2-((3-methoxy-5-(2-(2-(2-methoxyethoxy)ethoxy)ethoxy)phenyl)amino)pyridin-4-yl)oxy)naphthalen-1-yl)ureido)-benzamide], the IC50 in test [1] is 1.9 nM. Further, the inhibition at 5 µg/mL in test [2] was found to be 91.3%.

Regarding `COCCOCCOCCS(=O)(=O)c1cc(Nc2cc(Oc3ccc(NC(=O)Nc4cc(C(C)(C)C)cc(NS(C)(=O)=O)c4OC)c4ccccc34)ccn2)cc(OC)c1` [Example 85(y), 1-[5-tert-Butyl-3-(methanesulfonamido)-2-methoxyphenyl]-3-[4-[2-[3-methoxy-5-[2-[2-(2-methoxyethoxy)ethoxy]ethylsulfonyl]anilino]pyridin-4-yl]oxy-1-naphthyl]urea], the IC50 in test [1] was 1.7 nM. Further, in test [2], the inhibition at 5 µg/mL came to 20.1%.
